Measurements: US11612604B2, “Methods of treating cancer with PLK4 inhibitors” (LUDWIG INSTITUTE FOR CANCER RESEARCH LTD, priority 2017, dated 2023)

Each compound was assayed against T1, PLK4 (Homo sapiens, UniProt O00444) (assay: Activity (IC50) of the Table 1 compounds as PLK4 inhibitors). Conditions: Table 1, IC50 class.
T1 sequence (O00444 1-970): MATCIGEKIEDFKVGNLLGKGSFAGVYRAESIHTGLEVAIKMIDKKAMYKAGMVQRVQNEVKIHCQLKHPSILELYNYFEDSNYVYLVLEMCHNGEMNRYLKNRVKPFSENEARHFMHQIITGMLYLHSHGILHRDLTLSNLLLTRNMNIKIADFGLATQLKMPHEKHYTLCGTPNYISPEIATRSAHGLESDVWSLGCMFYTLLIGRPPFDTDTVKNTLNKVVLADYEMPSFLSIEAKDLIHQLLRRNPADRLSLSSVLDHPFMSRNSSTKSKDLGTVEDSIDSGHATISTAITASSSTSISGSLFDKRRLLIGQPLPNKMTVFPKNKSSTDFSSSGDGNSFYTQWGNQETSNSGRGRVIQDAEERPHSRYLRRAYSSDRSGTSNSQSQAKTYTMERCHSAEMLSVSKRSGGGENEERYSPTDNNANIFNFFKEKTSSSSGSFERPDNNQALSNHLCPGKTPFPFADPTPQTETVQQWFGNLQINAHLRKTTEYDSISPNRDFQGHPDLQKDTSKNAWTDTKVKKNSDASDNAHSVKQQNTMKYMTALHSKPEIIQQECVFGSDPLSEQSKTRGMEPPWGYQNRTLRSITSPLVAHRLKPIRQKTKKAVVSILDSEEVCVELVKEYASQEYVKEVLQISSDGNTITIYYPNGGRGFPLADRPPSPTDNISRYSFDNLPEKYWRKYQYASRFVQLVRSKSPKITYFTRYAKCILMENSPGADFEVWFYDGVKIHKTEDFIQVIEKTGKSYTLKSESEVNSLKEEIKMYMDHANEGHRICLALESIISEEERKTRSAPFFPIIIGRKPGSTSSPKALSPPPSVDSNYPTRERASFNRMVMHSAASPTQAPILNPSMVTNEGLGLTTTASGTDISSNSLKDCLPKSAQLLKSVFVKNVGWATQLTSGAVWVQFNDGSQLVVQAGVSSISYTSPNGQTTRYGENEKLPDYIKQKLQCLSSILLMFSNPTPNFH
Type: biochemical

Row | IC50 [nM] | Compound
1 | < 100 | Cc1cc(Nc2nc(Sc3ccc(NC(=O)C4CC4)cc3)nc(C)c2C)n[nH]1
2 | < 100 | CCNc1nc(Sc2ccc(NC(=O)C3CC3)cc2)nc(Nc2cc(C)[nH]n2)c1OC
3 | < 100 | CC(=O)Nc1ccc(Sc2nc3c(c(Nc4cc(C)[nH]n4)n2)C(C)CC3)cc1 (stereo not drawn)
4 | < 100 | Cc1cc(Nc2nc(Sc3ccc(NC(=O)C4CCCC4)cc3)nc3c2C(C)CC3)n[nH]1 (stereo not drawn)
5 | < 100 | COc1c(Nc2cc(C)[nH]n2)nc(Sc2ccc(NC(=O)C3CC3)cc2)nc1N1CCN(C(C)C)CC1
6 | < 100 | COc1c(Nc2cc(C)[nH]n2)nc(Sc2ccc(NC(=O)C3CC3)cc2)nc1N1CCN(C(C)=O)CC1
7 | < 100 | CCN1CCN(c2nc(Sc3ccc(NC(=O)C4CC4)cc3)nc(Nc3cc(C)[nH]n3)c2OC)CC1
8 | < 100 | COc1c(Nc2cc(C)[nH]n2)nc(Sc2ccc(S(=O)(=O)C(C)(C)c3cccc([N+](=O)[O-])c3F)cc2F)nc1N1CCC(CCCN(C)C)CC1
9 | < 100 | COc1c(Nc2cc(C)[nH]n2)nc(Sc2ccc(S(=O)(=O)C(C)(C)c3cc(F)cc(Cl)c3F)cc2F)nc1N1CCC(CCN(C)C)CC1
10 | < 100 | COc1c(Nc2cc(C)[nH]n2)nc(Sc2ccc(S(=O)(=O)C(C)(C)c3cccc([N+](=O)[O-])c3F)cc2F)nc1N1CCC(CN(C)C)CC1
11 | < 100 | COc1c(Nc2cc(C)[nH]n2)nc(Sc2ccc(S(=O)(=O)C(C)(C)c3cccc([N+](=O)[O-])c3F)cc2F)nc1N1CCC(CC(=O)N(C)C)CC1
12 | < 100 | COc1c(Nc2cc(C)[nH]n2)nc(Sc2ccc(S(=O)(=O)C(C)(C)c3cccc([N+](=O)[O-])c3F)cc2F)nc1N(C)C
13 | < 100 | COc1c(Nc2cc(C)[nH]n2)nc(Sc2ccc(S(=O)(=O)C(C)(C)c3cccc([N+](=O)[O-])c3F)cc2F)nc1N1CCC(CCNC(C)=O)CC1
14 | < 100 | COc1ccc(CN(C)CCC2CCN(c3nc(Sc4ccc(S(=O)(=O)C(C)(C)c5cc(Cl)cc([N+](=O)[O-])c5F)cc4F)nc(Nc4cc(C)[nH]n4)c3OC)CC2)cc1
15 | < 100 | COc1c(Nc2cc(C)[nH]n2)nc(Sc2ccc(S(=O)(=O)C(C)(C)c3c(F)c(F)cc(F)c3F)cc2F)nc1N1CCC(N(C)C)CC1
16 | < 100 | COc1c(Nc2cc(C)[nH]n2)nc(Sc2ccc(S(=O)(=O)Cc3c(F)c(F)cc(Cl)c3F)cc2F)nc1N1CCOCC1
17 | < 100 | COc1c(Nc2cc(C)[nH]n2)nc(Sc2ccc(S(=O)(=O)Cc3c(F)c(F)cc(Cl)c3F)cc2F)nc1N1CCN(CCN(C)C)CC1
18 | < 100 | COc1c(Nc2cc(C)[nH]n2)nc(Sc2ccc(S(=O)(=O)Cc3c(F)c(F)cc(Cl)c3F)cc2F)nc1N1CCC(CCN(C)C)CC1
19 | < 100 | COC(=O)CC1CCN(c2nc(Sc3ccc(S(=O)(=O)C(C)(C)c4cccc([N+](=O)[O-])c4F)cc3F)nc(Nc3cc(C)[nH]n3)c2OC)CC1

Row | IC50 [nM] | Compound
20 | < 100 | COc1c(Nc2cc(C)[nH]n2)nc(Sc2ccc(S(=O)(=O)C(C)(C)c3cccc([N+](=O)[O-])c3F)cc2F)nc1N1CCC(CC(=O)O)CC1
21 | < 100 | COc1c(Nc2cc(C)[nH]n2)nc(Sc2ccc(S(=O)(=O)C(C)(C)c3cccc([N+](=O)[O-])c3F)cc2F)nc1N1CCC(N(C)C)C1 (stereo not drawn)
22 | < 100 | COc1c(Nc2cc(C)[nH]n2)nc(Sc2ccc(S(=O)(=O)C(C)(C)c3cccc([N+](=O)[O-])c3F)cc2F)nc1N1CCC(OC)C1 (stereo not drawn)
23 | < 100 | COc1c(Nc2cc(C)[nH]n2)nc(Sc2ccc(S(=O)(=O)C(C)(C)c3cccc([N+](=O)[O-])c3F)cc2F)nc1N1CCC(CCO)CC1
24 | < 100 | COCCC1CCN(c2nc(Sc3ccc(S(=O)(=O)C(C)(C)c4cccc([N+](=O)[O-])c4F)cc3F)nc(Nc3cc(C)[nH]n3)c2OC)CC1
25 | < 100 | COc1c(Nc2cc(C)[nH]n2)nc(Sc2ccc(S(=O)(=O)C(C)(C)c3cccc([N+](=O)[O-])c3F)cc2F)nc1N1CCN(C(=O)CN(C)C)CC1
26 | < 100 | COc1c(Nc2cc(C)[nH]n2)nc(Sc2ccc(S(=O)(=O)C(C)(C)c3c(F)c(F)cc(Cl)c3F)cc2F)nc1N1CCOCC1
27 | < 100 | COc1c(Nc2cc(C)[nH]n2)nc(Sc2ccc(S(=O)(=O)C(C)(C)c3cccc([N+](=O)[O-])c3F)cc2F)nc1N1CCC(CCN)CC1
28 | < 100 | COc1c(Nc2cc(C)[nH]n2)nc(Sc2ccc(S(=O)(=O)Cc3c(F)c(F)c(F)c(F)c3F)cc2F)nc1N1CCOCC1
29 | < 100 | CNCCC1CCN(c2nc(Sc3ccc(S(=O)(=O)C(C)(C)c4cccc([N+](=O)[O-])c4F)cc3F)nc(Nc3cc(C)[nH]n3)c2OC)CC1
30 | < 100 | COc1c(Nc2cc(C)[nH]n2)nc(Sc2ccc(S(=O)(=O)C(C)(C)c3c(F)c(F)c(F)c(F)c3F)cc2F)nc1N1CCOCC1
31 | < 100 | COc1c(Nc2cc(C)[nH]n2)nc(Sc2ccc(S(=O)(=O)C(C)(C)C)cc2)nc1N1CCN(CCN(C)C)CC1
32 | < 100 | COc1c(Nc2cc(C)[nH]n2)nc(Sc2ccc(S(=O)(=O)C(C)(C)c3cccc([N+](=O)[O-])c3F)cc2F)nc1N1CCC(NC(C)=O)CC1
33 | < 100 | COc1c(Nc2cc(C)[nH]n2)nc(Sc2ccc(S(=O)(=O)C(C)(C)c3cccc([N+](=O)[O-])c3F)cc2F)nc1N1CC[C@H](NC(C)=O)C1
34 | < 100 | COc1c(Nc2cc(C)[nH]n2)nc(Sc2ccc(S(=O)(=O)C(C)(C)c3cccc([N+](=O)[O-])c3F)cc2F)nc1N1CCN(CC(=O)N(C)C)CC1
35 | < 100 | COc1c(Nc2cc(C)[nH]n2)nc(Sc2ccc(S(=O)(=O)C(C)(C)c3cccc([N+](=O)[O-])c3F)cc2F)nc1N1CC[C@H](N(C)C)C1
36 | < 100 | COc1c(Nc2cc(C)[nH]n2)nc(Sc2ccc(S(=O)(=O)C(C)(C)c3cccc([N+](=O)[O-])c3F)cc2F)nc1N1CC[C@@H](N(C)C)C1
37 | < 100 | COc1c(Nc2cc(C)[nH]n2)nc(Sc2ccc(S(=O)(=O)C(C)(C)c3c(F)c(F)cc(F)c3F)cc2F)nc1N1CCC(NC(C)=O)CC1
38 | < 100 | COc1c(Nc2cc(C)[nH]n2)nc(Sc2ccc(S(=O)(=O)C(C)(C)c3c(F)c(F)cc(F)c3F)cc2F)nc1N1CC[C@H](N(C)C)C1

Row | IC50 [nM] | Compound
39 | < 100 | COc1c(Nc2cc(C)[nH]n2)nc(Sc2ccc(S(=O)(=O)C(C)(C)c3c(F)c(F)cc(F)c3F)cc2F)nc1N1CCC(CC(=O)N(C)C)CC1
40 | < 100 | COc1c(Nc2cc(C)[nH]n2)nc(Sc2ccc(S(=O)(=O)C(C)(C)c3c(F)c(F)cc(F)c3F)cc2F)nc1N1CC[C@@H](N(C)C)C1
41 | < 100 | COc1c(Nc2cc(C)[nH]n2)nc(Sc2ccc(S(=O)(=O)C(C)(C)c3c(F)c(F)c(F)c(F)c3F)cc2F)nc1N1CCC(N(C)C)CC1
42 | < 100 | COc1c(Nc2cc(C)[nH]n2)nc(Sc2ccc(S(=O)(=O)C(C)(C)c3c(F)c(F)c(F)c(F)c3F)cc2F)nc1N1CCC(CCN(C)C)CC1
43 | < 100 | COc1c(Nc2cc(C)[nH]n2)nc(Sc2ccc(S(=O)(=O)C(C)(C)c3cccc([N+](=O)[O-])c3F)cc2F)nc1N1CCC(O)C1 (stereo not drawn)
44 | < 100 | COc1c(Nc2cc(C)[nH]n2)nc(Sc2ccc(S(=O)(=O)C(C)(C)c3c(F)c(F)c(F)c(F)c3F)cc2F)nc1N1CCN(CCN(C)C)CC1
45 | < 100 | COc1c(Nc2cc(C)[nH]n2)nc(Sc2ccc(S(=O)(=O)C(C)(C)c3c(F)c(F)cc(F)c3F)cc2F)nc1N1CCC(OC(C)=O)CC1
46 | < 100 | COc1ccc(CS(=O)(=O)c2ccc(Sc3nc(Nc4cc(C)[nH]n4)c(OC)c(N4CCOCC4)n3)c(F)c2)cc1
47 | < 100 | COc1ccc(CS(=O)(=O)c2ccc(Sc3nc(Nc4cc(C)[nH]n4)c(OC)c(N4CCCCC4)n3)c(F)c2)cc1
48 | < 100 | COc1c(Nc2cc(C)[nH]n2)nc(Sc2ccc(S(=O)(=O)C(C)(C)c3cccc([N+](=O)[O-])c3F)cc2F)nc1N1CCC(N(C)C(C)=O)CC1
49 | < 100 | COc1c(Nc2cc(C)[nH]n2)nc(Sc2ccc(S(=O)(=O)C(C)(C)c3c(F)c(F)cc(F)c3F)cc2F)nc1N1CCC(N(C)C(C)=O)CC1
50 | < 100 | COc1ccc(CS(=O)(=O)c2ccc(Sc3nc(Nc4cc(C)[nH]n4)c(OC)c(N4CCOCC4)n3)cc2)cc1
51 | < 100 | COc1ccc(CS(=O)(=O)c2ccc(Sc3nc(Nc4cc(C)[nH]n4)c(OC)c(N4CCCCC4)n3)cc2)cc1
52 | < 100 | COc1c(Nc2cc(C)[nH]n2)nc(Sc2ccc(S(=O)(=O)C(C)(C)c3c(F)c(F)cc([N+](=O)[O-])c3F)cc2F)nc1N1CCN(CCN(C)C)CC1
53 | < 100 | COc1c(Nc2cc[nH]n2)nc(Sc2ccc(S(=O)(=O)Cc3cccc([N+](=O)[O-])c3F)cc2F)nc1N1CCOCC1
54 | < 100 | COc1c(Nc2cc[nH]n2)nc(Sc2ccc(S(=O)(=O)Cc3cccc([N+](=O)[O-])c3F)cc2F)nc1N1CCCCC1
55 | < 100 | CNC(=O)CC1CCN(c2nc(Sc3ccc(S(=O)(=O)C(C)(C)c4cccc([N+](=O)[O-])c4)cc3F)nc(Nc3cc(C)[nH]n3)c2OC)CC1
56 | < 100 | COc1c(Nc2cc(C)[nH]n2)nc(Sc2ccc(S(=O)(=O)C(C)(C)c3cccc([N+](=O)[O-])c3F)cc2F)nc1N1CCC(N)CC1
57 | < 100 | COc1c(Nc2cc(C)[nH]n2)nc(Sc2ccc(S(=O)(=O)C(C)(C)c3cccc([N+](=O)[O-])c3F)cc2F)nc1N1CCC(CC(N)=O)CC1
